Here are results for 31 compounds from patent publication US9868720B2 (Genentech, Inc., priority 2013, dated 2018).

In this assay the target is DLK kinase (N-terminally GST-tagged DLK, catalytic domain amino acid 1-520) (Homo sapiens (Human), UniProt Q12852). Nature of the assay: DLK TR-FRET assay. It counts as biochemical. Particulars: 30 μM ATP, MKK4 K131M substrate, read-out: DLK HTRF (Ki). The protocol: DLK TR-FRET assay: DLK kinase reactions (20 μL) containing 5 nM N-terminally GST-tagged DLK (catalytic domain amino acid 1-520) (Carna Bioscience), 40 nM N-terminally HIS-tagged MKK4 K131M substrate, and 30 μM ATP in kinase reaction buffer (50 mM HEPES, pH 7.5, 0.01% Triton X-100, 0.01% Bovine γ-Globulins, 2 mM DTT, 10 mM MgCl2 and 1 mM EGTA), and testing compound 1:3 serial diluted starting at 20 uM were incubated at ambient temperature for 60 minutes in 384 well OptiPlate (Perkin Elmer). To quench kinase reactions and detect phosphorylated MKK4, 15 μL of TR-FRET antibody mixture containing 2 nM anti-phosphorylated MKK4 labeled with Europium cryptate (Cisbio) and 23 nM anti-HIS labeled with D2 (Cisbio) in detection buffer (25 mM Tris pH 7.5, 100 mM NaCl, 100 mM EDTA, 0.01% Tween-20, and 200 mM KF) was added to the reaction mixture. The detection mixture was incubated for 3 hours at ambient temperature and the TR-FRET was detected with an EnVision multilabel plate reader (Perkin-Elmer) using the LANCE/DELFIA Dual Enh label from Perkin-Elmer (excitation filter: UV2 (TRF) 320 and emission filters: APC 665 and Europium 615).
Sequence of DLK kinase (N-terminally GST-tagged DLK, catalytic domain amino acid 1-520) (Q12852 1-520): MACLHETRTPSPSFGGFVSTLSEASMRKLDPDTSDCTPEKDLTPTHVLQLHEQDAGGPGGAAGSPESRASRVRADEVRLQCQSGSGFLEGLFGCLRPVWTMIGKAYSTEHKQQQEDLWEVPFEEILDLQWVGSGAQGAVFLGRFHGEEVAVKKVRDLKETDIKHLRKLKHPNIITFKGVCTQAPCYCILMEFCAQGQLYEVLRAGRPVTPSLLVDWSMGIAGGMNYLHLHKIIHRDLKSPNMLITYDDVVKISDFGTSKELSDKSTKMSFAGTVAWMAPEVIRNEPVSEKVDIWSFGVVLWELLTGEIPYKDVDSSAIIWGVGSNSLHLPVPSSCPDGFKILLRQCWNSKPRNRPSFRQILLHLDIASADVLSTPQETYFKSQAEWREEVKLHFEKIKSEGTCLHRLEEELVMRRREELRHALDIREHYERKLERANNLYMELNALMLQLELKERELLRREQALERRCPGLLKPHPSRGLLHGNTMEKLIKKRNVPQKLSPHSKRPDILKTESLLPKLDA
A general note: Time-resolved FRET reads energy transfer from a long-lived donor to a nearby acceptor.
Usually Ki stands for a measure of affinity in units of concentration, obtained from inhibition or displacement. As to `Cc1ccnc(Nc2cc(C3CCCN(Cc4cn5ccccc5n4)C3)nc(C)n2)c1` (stereo not shown) [Example 51, [6-(1-Imidazo[1,2-a]pyridin-2-ylmethyl-piperidin-3-yl)-2-methyl-pyrimidin-4-yl]-(4-methyl-pyridin-2-yl)-amine], the inhibition constant (Ki) turned out to be 166 nM. Next, `CC1CCCN1c1nc(Nc2cc(C(F)(F)F)ccn2)cc(C2CCNCC2)n1` (stereo not shown) [Example 65, [2-(2-Methyl-pyrrolidin-1-yl)-6-piperidin-4-yl-pyrimidin-4-yl]-(4-tri-fluoromethyl-pyridin-2-yl)-amine]: 0.735 nM; `Cc1nc(Nc2cc(C(F)(F)F)ccn2)cc(C2CCCN(C(=O)c3ccc(F)cc3)C2)n1` (stereo not shown) [Example 22, (4-Fluoro-phenyl)-{3-[2-methyl-6-(4-trifluoro-methyl-pyridin-2-ylamino)-pyrimidin-4-yl]-piperidin-1-yl}-methanone]: 43.6 nM. To `C[C@H]1CCCN1c1nc(Nc2cc(C(F)(F)F)ccn2)cc(C2CCNCC2)n1` [Example 112, [2-((S)-2-Methyl-pyrrolidin-1-yl)-6-piperidin-4-yl-pyrimidin-4-yl]-(4-trifluoromethyl-pyridin-2-yl)-amine] belongs 15.8 nM; to `FC(F)(F)c1ccnc(Nc2cc(C3CCCN(C4COC4)C3)nc(C3CCC3)n2)c1` (stereo not shown) [Example 407, [2-Cyclobutyl-6-(1-oxetan-3-yl-piperidin-3-yl)-pyrimidin-4-yl]-(4-trifluoro-methyl-pyridin-2-yl)-amine], 26 nM; to `CC(C)(C)c1ccnc(Nc2cc(C3CCNCC3)nc(N3CCC(F)(F)C3)n2)c1` [Example 200, (4-tert-Butyl-pyridin-2-yl)-[2-(3,3-difluoro-pyrrolidin-1-yl)-6-piperidin-4-yl-pyrimidin-4-yl]-amine], 8.34 nM. Next, `CCc1ccnc(Nc2cc(C3CCCN(C(=O)c4ccccc4)C3)nc(C)n2)c1` (stereo not shown): 195 nM; `CN1CCC(c2cc(Nc3cc(C(F)(F)F)ccn3)nc(N3CCC(F)(F)C3)n2)CC1` [Example 160, [2-(3,3-Difluoro-pyrrolidin-1-yl)-6-(1-methyl-piperidin-4-yl)-pyrimidin-4-yl]-(4-trifluoromethyl-pyridin-2-yl)-amine]: 4.42 nM. For `CC(C)c1nc(Nc2cc(C(F)(F)F)ccn2)cc(C2CCNC(=O)C2)n1` (stereo not shown) [Example 408, 4-[2-Isopropyl-6-(4-trifluoro-methyl-pyridin-2-ylamino)-pyrimidin-4-yl]-piperidin-2-one], the Ki was 97.8 nM. Next, `N#CCC(=O)N1CCCC(c2cc(Nc3cc(C(F)(F)F)ccn3)nc(C3CC3)n2)C1` (stereo not shown) [Example 173, 3-{3-[2-Cyclopropyl-6-(4-trifluoromethyl-pyridin-2-ylamino)-pyrimidin-4-yl]-piperidin-1-yl}-3-oxo-propionitrile]: 37 nM; `O=C(C(F)F)N1CCC(c2cc(Nc3cc(C(F)(F)F)ccn3)nc(N3CC4CCC(C3)O4)n2)CC1` [Example 294, 2,2-Difluoro-1{-[2(8-oxa-3-aza-bicyclo[3.2.1]oct-3-yl)-6-(4-trifluoro-methyl-pyridin-2-ylamino)-pyrimidin-4-yl]-piperidin-1-yl}-ethanone]: 104 nM. To `CC(=O)N1CC(c2cc(Nc3cc(C(F)(F)F)ccn3)nc(C3CC3)n2)C1` [Example 356, 1-{3-[2-Cyclopropyl-6-(4-trifluoromethyl-pyridin-2-ylamino)-pyrimidin-4-yl]-azetidin-1-yl}-ethanone] belongs 101 nM; to `FC1(F)CCN(c2nc(Nc3cc(Cl)ccn3)cc(C3CCN(C4COC4)CC3)n2)C1` [Example 427, N-(4-chloropyridin-2-yl)-2-(3,3-difluoropyrrolidin-1-yl)-6-(1-(oxetan-3-yl)piperidin-4-yl)pyrimidin-4-amine], 16 nM. For `O=C(C(F)F)N1CCC(c2cc(Nc3cc(C(F)(F)F)ccn3)nc(N3CC4CCC(C3)O4)n2)C1` (stereo not shown) [Example 373, 2,2-Difluoro-1-{3-[2-(8-oxa-3-aza-bicyclo[3.2. 1]oct-3-yl)-6-(4-trifluoro-methyl-pyridin-2-ylamino)-pyrimidin-4-yl]-pyrrolidin-1-yl}-ethanone], the Ki was determined as 173 nM. Next, `CC1CCCN1c1nc(Nc2cc(C(F)(F)F)ccn2)cc(C2CCN(C)C(=O)C2)n1` (stereo not shown) [Example 332, 1-Methyl-4-[2-(2-methyl-pyrrolidin-1-yl)-6-(4-trifluoromethyl-pyridin-2-ylamino)-pyrimidin-4-yl]-piperidin-2-one]: 6.12 nM; `O=C(C1CC1)N1CCC(c2cc(Nc3cc(C(F)(F)F)ccn3)nc(N3CCC(F)(F)C3)n2)C1` (stereo not shown) [Example 184, Cyclopropyl-{3-[2-(3,3-difluoro-pyrrolidin-1-yl)-6-(4-trifluoromethyl-pyridin-2-ylamino)-pyrimidin-4-yl}-pyrrolidin-1-yl}-methanone]: 41.5 nM.

Turning to `Cc1nc(Nc2ccc(C(F)(F)F)cn2)cc(C2CCCN(C(=O)c3ccccc3)C2)n1` (stereo not shown), the Ki is 691 nM. Next, `CC(=O)N1CCC(c2cc(Nc3cc(C)ccn3)nc(N3CCCC3)n2)C1` (stereo not shown) [Example 89, 1-{3-[6-(4-Methyl-pyridin-2-ylamino)-2-pyrrolidin-1-yl-pyrimidin-4-yl]-pyrrolidin-1-yl}-ethanone]: 59 nM; `Cc1ccnc(Nc2cc(C3CCCN(Cc4cc(C)nn4C)C3)nc(C)n2)c1` (stereo not shown) [Example 40, {6-[1-(2,5-Dimethyl-2H-pyrazol-3-ylmethyl)-piperidin-3-yl]-2-methyl-pyrimidin-4-yl}-(4-methyl-pyridin-2-yl)-amine]: 392 nM; `FC1(F)CCN(c2nc(Nc3cc(Cl)ccn3)cc(C3CCNCC3)n2)C1` [Example 120, (4-Chloro-pyridin-2-yl)-[2-(3,3-difluoro-pyrrolidin-1-yl)-6-piperidin-4-yl-pyrimidin-4-yl]-amine]: 8.55 nM. Next, `C[C@@H]1CCCN1c1nc(Nc2cc(C3CC3)ccn2)cc(C2CCNCC2)n1` [Example 202, (4-Cyclopropyl-pyridin-2-yl)-[2-((R)-2-methyl-pyrrolidin-1-yl)-6-piperidin-4-yl-pyrimidin-4-yl]-amine]: 0.95 nM; `CCC1CN(c2nc(Nc3cc(C(F)(F)F)ccn3)cc(C3CCN(C)C3)n2)CCO1` (stereo not shown) [Example 348, [2-(2-Ethyl-morpholin-4-yl)-6-(1-methyl-pyrrolidin-3-yl)-pyrimidin-4-yl]-(4-trifluoromethyl-pyridin-2-yl)-amine]: 22.6 nM.

As to `N#CC1(c2cc(Nc3cc(C(F)(F)F)ccn3)nc(N3CCC(F)(F)C3)n2)CCNCC1` [Example 105, 4-[2-(3,3-Difluoro-pyr-rolidin-1-yl)-6-(4-trifluoro-methyl-pyridin-2-ylamino)-pyrimidin-4-yl]-piperidine-4-carbonitrile], the Ki turned out to be 11.7 nM. Next, `CC1CCCN1c1nc(Nc2cc(C(F)(F)F)ccn2)cc(C2CCN(C(=O)c3cn(C)cn3)C2)n1` (stereo not shown) [Example 376, (1-Methyl-1H-imidazol-4-yl)-{3-[2-(2-methyl-pyrrolidin-1-yl)-6-(4-trifluoromethyl-pyridin-2-ylamino)-pyrimidin-4-yl]-pyrrolidin-1-yl}-methanone]: 1.72 nM. Regarding `FC(F)(F)c1ccnc(Nc2cc(C3CCNC3)nc(N3CCCC3)n2)c1` (stereo not shown) [Example 66, (2-Pyrrolidin-1-yl-6-pyr-rolidin-3-yl-pyrimidin-4-yl)-(4-trifluoromethyl-pyridin-2-yl)-amine], the Ki came out at 4.8 nM. Take `CC1CCCN1c1nc(Nc2cc(C(F)(F)F)ccn2)cc(C2CCN(C(=O)Cn3ccnc3)C2)n1` (stereo not shown) [Example 402, 2-Imidazol-1-yl-1-{3-[2-(2-methyl-pyrrolidin-1-yl)-6-(4-trifluoromethyl-pyridin-2-ylamino)-pyrimidin-4-yl]-pyrrolidin-1-yl}-ethanone]: the Ki is 1.59 nM.

Consider `FC(F)(F)c1ccnc(Nc2cc(C3CCCN(C4COC4)C3)nc(C3CCCC3)n2)c1` (stereo not shown) [Example 391, [2-Cyclopentyl-6-(1-oxetan-3-yl-piperidin-3-yl)-pyrimidin-4-yl]-(4-trifluoromethyl-pyridin-2-yl)-amine], for which the Ki stood at 9 nM. To `Cc1ccnc(Nc2cc(C3CCCN(Cc4ccccn4)C3)nc(C)n2)c1` (stereo not shown) [Example 56, (4-Methyl-pyridin-2-yl)-[2-methyl-6-(1-pyridin-2-ylmethyl-piperidin-3-yl)-pyrimidin-4-yl]-amine] belongs 293 nM.

Consider `CC(C)Cc1nc(Nc2cc(C(F)(F)F)ccn2)cc(C2CCCN(C(=O)C(F)F)C2)n1` (stereo not shown) [Example 195, 2,2-Difluoro-1-{3-[2-isobutyl-6-(4-trifluoromethyl-pyridin-2-ylamino)-pyrimidin-4-yl]-piperidin-1-yl}-ethanone], for which the Ki is 143 nM. Next, `CC(=O)N1CCC(c2cc(Nc3cc(C(F)(F)F)ccn3)nc(-c3cnn(C)c3)n2)CC1` [Example 424, 1-{4-[2-(1-Methyl-1H-pyrazol-4-yl)-6-(4-trifluoromethyl-pyridin-2-ylamino)-pyrimidin-4-yl]-piperidin-1-yl}-ethanone]: 12.4 nM. Next, `FC1(F)CCCN(c2nc(Nc3cc(C(F)(F)F)ccn3)cc(C3CCNC3)n2)C1` (stereo not shown) [Example 96, [2-(3,3-Difluoro-piperidin-1-yl)-6-pyrrolidin-3-yl-pyrimidin-4-yl]-(4-tri-fluoromethyl-pyridin-2-yl)-amine]: 3.1 nM.
